Laboratory results taken from article PMC2358886, “Evolution of pharmacologic specificity in the pregnane X receptor” (BMC Evolutionary Biology, 2008).
Where two headings read alike, the source gives them in different places.

Legend:
[1] = target: T1, human PXR (Homo sapiens, UniProt O75469)
T1 sequence (O75469 1-434): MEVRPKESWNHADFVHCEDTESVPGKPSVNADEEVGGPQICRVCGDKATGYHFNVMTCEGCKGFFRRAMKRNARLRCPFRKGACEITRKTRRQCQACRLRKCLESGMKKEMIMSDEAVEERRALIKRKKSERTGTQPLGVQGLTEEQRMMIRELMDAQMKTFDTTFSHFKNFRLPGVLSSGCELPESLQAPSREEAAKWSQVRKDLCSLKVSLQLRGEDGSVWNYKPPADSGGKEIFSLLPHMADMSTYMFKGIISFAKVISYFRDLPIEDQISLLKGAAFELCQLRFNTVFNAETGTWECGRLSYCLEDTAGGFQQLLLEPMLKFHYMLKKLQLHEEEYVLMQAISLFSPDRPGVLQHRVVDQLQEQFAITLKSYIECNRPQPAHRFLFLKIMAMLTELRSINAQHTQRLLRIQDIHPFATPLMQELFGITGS

[2] = target: T2, zebrafish PXR (Danio rerio, UniProt A5WYG8)
T2 sequence (A5WYG8 144-430): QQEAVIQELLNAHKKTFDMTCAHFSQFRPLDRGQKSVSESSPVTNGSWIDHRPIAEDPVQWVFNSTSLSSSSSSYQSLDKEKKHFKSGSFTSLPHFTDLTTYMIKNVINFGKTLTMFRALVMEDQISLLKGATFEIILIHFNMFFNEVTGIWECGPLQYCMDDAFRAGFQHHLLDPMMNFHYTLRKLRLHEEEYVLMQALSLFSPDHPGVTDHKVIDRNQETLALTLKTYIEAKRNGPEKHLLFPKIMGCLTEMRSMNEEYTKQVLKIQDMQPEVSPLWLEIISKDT

[3] = test system: HepG2 cells
[4] = target: T1, human PXR; test: PXR activation luciferase reporter assay, human PXR in HepG2-NTCP cells
[5] = -log(EC50), EC50 in molar units, activation of zebrafish PXR
[6] = relative to 20 μM 5α-androstan-3α-ol, assigned an efficacy of 1.0

Compound	hPXR Activity [1]	zfPXR Activity [2, 5]	Toxicity [3]	other results
C[C@H](CCC(O)C(CO)CO)[C@H]1CC[C@H]2[C@@H]3[C@H](O)C[C@@H]4C[C@H](O)CC[C@]4(C)[C@H]3C[C@H](O)[C@]12C (stereo partly drawn) [BI35, 5β-Cholestan-3α,7α,12α,24,26-hexol]	None	None	100 µM	–
Nc1cccc(C(=O)O)c1 [MI2, 3-Aminobenzoic acid]	None	None	None	–
CC(CO)CCC[C@@H](C)[C@H]1[C@H](O)C[C@H]2[C@@H]3[C@H](O)C[C@H]4C[C@@H](O)CC[C@]4(C)[C@H]3CC[C@]12C (stereo partly drawn) [BI40, 5α-Cholestan-3β,7α,16α,27-tetrol]	None	None	–	Toxicity ([3]; human, 24 hr): 100 µM
CC1=CC(=O)c2ccccc2C1=O [MI46, Vitamin K3]	–	–	–	hPXR Efficacy ([1]; human): ~0.15; zfPXR Activity [2]: None; Toxicity ([3]; human, 24 hr): 100 µM
C[C@H](CC(=O)O)[C@H]1CC[C@H]2[C@@H]3CC[C@@H]4C[C@H](O)CC[C@]4(C)[C@H]3C[C@H](O)[C@]12C [BI26, 23-Nordeoxycholic acid]	4.79	None	None	–
COc1c(O)ccc2c1CC[C@@H]1[C@@H]2CC[C@]2(C)C(=O)CC[C@@H]12 [ES5, 1,3,5(10)-Estratrien-3-ol-4-methoxy-17-one]	5.40	5.62	None	zfPXR Efficacy [2]: 0.19
CC(C)CCC[C@@H](C)[C@H]1CC[C@H]2C3=CC=C4C[C@@H](O)CC[C@]4(C)[C@H]3CC[C@]12C [MI28, Provitamin D3]	None	None	10 µM	–
4-Pregnen-20β-ol-3,20-dione-17α-sulfate [PR22]	5.73	None	None	–
CC(=O)[C@@]1(O)CC[C@H]2[C@@H]3CC=C4C[C@@H](O)CC[C@]4(C)[C@H]3CC[C@@]21C [PR11, 5-Pregnen-3β,17-diol-20-one]	4.47	None	None	EC50 [1]: 11 to 50 µM
CC(=O)[C@H]1CC[C@H]2[C@@H]3CC=C4C[C@@H](OS(=O)(=O)O)CC[C@]4(C)[C@H]3CC[C@]12C [PR26, 5-Pregnen-20-one-3β-sulfate]	None	4.95	None	zfPXR Efficacy [2, 6]: 0.23
CC(C)CCC[C@@H](C)[C@H]1CC[C@H]2[C@@H]3CC=C4C[C@@H](O)CC[C@]4(C)[C@H]3CC[C@]12C [Cholesterol]	–	–	–	Human PXR EC50 (concentration class, Figure 2A) [1]: Inactive
C[C@]12CC[C@@H](O)C[C@H]1CC[C@@H]1[C@@H]2[C@@H](O)C[C@@]2(C)[C@H]1CC[C@]2(O)[C@@H](O)CO [PR17, 5β-Pregnan-3α,11β,17,20α-21-pentol]	4.33	3.95	200 µM	zfPXR Efficacy [2, 6]: 0.98
C[C@]12CC[C@H](O)CC1=CC[C@@H]1[C@@H]2CC[C@]2(C)C(=O)CC[C@@H]12 [AN9, 5-Androsten-3β-ol-17-one]	4.49	–	None	EC50 [1]: 11 to 50 µM; hPXR Efficacy [1]: 0.52; EC50 [2]: 11 to 50 µM; zfPXR Activity [2]: 4.89; zfPXR Efficacy [2]: 0.35
C[C@]12CC[C@@H]3c4ccc(OS(=O)(=O)O)cc4CC[C@H]3[C@@H]1CCC2=O [ES8, 1,3,5(10)-Estratrien-17-one-3-sulfate]	5.47	None	None	–
CC1=C(/C=C/C(C)=C/C=C/C(C)=C/CO)C(C)(C)CCC1 [MI31, Retinol]	–	–	–	hPXR Efficacy ([1]; human): 0.20; zfPXR Activity [2]: None; Toxicity ([3]; human, 24 hr): 50 µM
C[C@H](CCCO)[C@H]1CC[C@H]2[C@@H]3[C@H](O)C[C@H]4C[C@H](O)CC[C@]4(C)[C@H]3C[C@H](O)[C@]12C [BI29, 5α-Cholan-3α,7α,12α,-24-tetrol]	None	None	50 µM	–
C[C@@H](O)[C@H]1CC[C@H]2[C@@H]3CC[C@@H]4C[C@H](O)CC[C@]4(C)[C@H]3CC[C@]12C [PR23, 5β-Pregnan-3α,20β-diol]	5.42	5.95	None	zfPXR Efficacy [2, 6]: 0.25
C[C@@H](O)[C@@]1(O)CC[C@H]2[C@@H]3CCC4=CC(=O)CC[C@]4(C)[C@H]3CC[C@@]21C [PR21, 4-Pregnen-17α,20β-diol-3,20-dione]	None	None	200 µM	–
C[C@]12CC[C@@H]3c4ccc(O)cc4CC[C@H]3[C@@H]1C[C@@H](O)C2=O [ES4, 1,3,5(10)-Estratrien-3,16α-diol-17-one]	5.60	5.70	None	zfPXR Efficacy [2]: 0.17
C[C@]12CC[C@@H]3c4ccc(O)cc4CC[C@H]3[C@@H]1C[C@@H](O)[C@@H]2O [ES3, 1,3,5(10)-Estratrien-3,16α,17β-triol]	None	None	–	Toxicity ([3]; human, 24 hr): 200 µM
C[C@]12CCC(=O)C[C@@H]1CC[C@@H]1[C@@H]2CC[C@]2(C)C(=O)CC[C@@H]12 [AN2, 5α-Androstan-3,17-dione]	–	–	None	hPXR Efficacy ([1]; human): 0.87
C[C@H](CC(=O)O)[C@H]1CC[C@H]2[C@@H]3[C@H](O)C[C@@H]4C[C@H](O)CC[C@]4(C)[C@H]3C[C@H](O)[C@]12C [BI27, 23-Norcholic acid]	4.02	None	None	–
C=C1/C(=C\C=C2/CCC[C@]3(C)[C@@H]([C@H](C)/C=C/[C@H](C)C(C)C)CC[C@@H]23)C[C@@H](O)C[C@@H]1O [MI42, 1α-Hydroxyvitamin D2]	None	None	–	Toxicity ([3]; human, 24 hr): 50 µM
CC(C)[C@@H](C)/C=C/[C@@H](C)[C@H]1CC[C@H]2C3=CC=C4C[C@@H](O)CC[C@]4(C)[C@H]3CC[C@]12C [MI29, Provitamin D2]	None	None	20 µM	–
CCC1(c2ccccc2)C(=O)NC(=O)NC1=O [MI25, Phenobarbital]	–	–	None	hPXR Efficacy ([1]; human): 1.19
C[C@]12CC[C@H]3[C@@H](CCC4=CC(=O)CC[C@@]43C)[C@@H]1CC[C@H]2O [AN15, 4-Androsten-17α-ol-3-one]	–	–	None	hPXR Efficacy ([1]; human): 0.9
C[C@]12CC[C@@H](O)C[C@H]1CC[C@@H]1[C@@H]2[C@@H](O)C[C@@]2(C)[C@H]1CC[C@]2(O)C(=O)CO [PR24, 5β-Pregnan-3α,11β,17,21-tetrol-20-one]	4.33	3.94	None	zfPXR Efficacy [2, 6]: 0.11
Cn1c(=O)c2c(ncn2C)n(C)c1=O [MI6, Caffeine]	None	–	–	–
C[C@]12CC[C@H]3[C@@H](CCC4=CC(=O)CC[C@@]43C)[C@@H]1CC[C@@H]2O [AN8, 4-Androsten-17β-ol-3-one]	–	–	None	hPXR Efficacy ([1]; human): 0.22
C[C@]12CC[C@@H]3c4ccc(O)cc4CC[C@H]3[C@@H]1CC[C@@H]2O [ES1, 1,3,5(10)-Estratrien-3,17β-diol]	–	None	–	Toxicity ([3]; human, 24 hr): 200 µM; EC50 ([4]; Human PXR EC50 (concentration class, Figure 2A), class read from box colour against the key of Figure 2): 11 to 50 µM; EC50 ([4]; hPXR Activity, -log(EC50), EC50 in molar units, activation of human PXR): 15.8 µM
